The subject of one data set is SH-SY5Y, HeLa. The experiment in a line: MTT cell proliferation assay and trypan blue count (cell viability). It counts as cell-based. As to conditions: cells treated for 48 and 72 hours; read-out: IC50 values (inhibition of cellular proliferation, MTT assay and trypan blue assay). On the procedure: Cell based assays were used to evaluate the possible cytotoxic effects of some compounds. To measure cytotoxic effects two different methods were used, a MTT cell proliferation assay and trypan blue count.
The Trypan blue assay is used to determine the number of viable cells present in a cell suspension. […] Briefly, 8×10^5 cells (SH-SY5Y, HeLa; obtained from ATCC, LGC standards, Sesto San Giovanni) were seeded in 24-well plates and treated for 48 and 72 hours. After the treatments, cells were stained with trypan blue and counted.
To analyze cell viability was used the colorimetric 3-(4,5-dimethylthiazol-2-yl)-2,5-diphenyltetrazolium bromide (MTT) method. The assay is based on the cleavage of the yellow tetrazolium salt MTT to purple formazan crystals by metabolic active cells. Since reduction of MTT can only occur in metabolically active cells, the level of activity is a measure of the viability of cells and conversely the cytotoxic effects of various treatments. Briefly, 8×10^5 cells (SH-SY5Y, code number CRL-2266; and HeLa, code number CCL-2) were seeded in 24-well plates and treated for 48 and 72 hours. Compounds were dissolved in DMSO and were added to the cells to give a final DMSO concentration no greater than 0.5%. Cells were washed once in Locke buffer and 300 μl of MTT (250 μg/ml in Locke buffer) were added before returning the cells to the incubator for 1 h to allow the formation of the purple formazan crystals. After 1 h, 600 μl of isopropanol/0.1 M HCl were added to each well, and the absorbance was read at 570 nm in a plate reader (Victor3V, PerkinElmer Life Sciences). For some compounds a dose response curve and IC50 for the effects on cell viability and proliferation were calculated. Cell lines used were originally purchased from ATCC (LGC standards. Sesto San Giovanni).
To evaluate the ability of each compound to inhibit cellular proliferation, cells were seeded in 24-well plates and treated for 48 and 72 hours. After the treatments the MTT assay and trypan blue assay were performed.
In general terms: Tetrazolium assays rely on reduction of a dye to a coloured formazan, in cell work by metabolically active cells.

For another data set, the target named is T1, NAMPT (Homo sapiens, UniProt P43490).
T1 construct: endogenous in cells; host or cells: SH-SY5Y and HeLa
The data set can be described thus: Direct inhibition of NAMPT enzymatic activity (Cyclex NAMPT colorimetric Assay Kit). In kind it is biochemical. The settings on record: as assessed with a cycling assay. As for the experimental part: Determination of the direct activity of compounds on NAMPT was performed using a commercial kit, Cyclex NAMPT colorimetric Assay Kit.

T1 sequence (P43490 whole entry): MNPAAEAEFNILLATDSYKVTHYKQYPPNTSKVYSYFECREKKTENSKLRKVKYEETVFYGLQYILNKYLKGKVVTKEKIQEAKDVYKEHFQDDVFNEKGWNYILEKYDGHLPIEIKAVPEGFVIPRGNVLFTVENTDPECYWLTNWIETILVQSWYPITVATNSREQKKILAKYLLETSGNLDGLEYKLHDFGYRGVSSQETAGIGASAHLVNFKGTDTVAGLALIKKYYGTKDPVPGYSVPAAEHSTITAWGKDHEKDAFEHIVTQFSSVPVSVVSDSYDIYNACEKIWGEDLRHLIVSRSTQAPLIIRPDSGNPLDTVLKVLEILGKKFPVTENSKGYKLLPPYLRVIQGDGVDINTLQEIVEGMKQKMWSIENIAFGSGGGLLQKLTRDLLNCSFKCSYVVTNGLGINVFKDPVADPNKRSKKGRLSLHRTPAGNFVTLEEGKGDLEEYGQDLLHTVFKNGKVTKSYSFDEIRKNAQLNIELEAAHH

The term melting point denotes the temperature, or range, at which the solid turns liquid. `O=C(NCCCCCCCCn1cc(-c2cccnc2)nn1)Nc1ccccc1-c1ccccc1` [1-([1,1′-biphenyl]-2-il)-3-(8-(4-(pyridin-3-yl)-1H-1,2,3-triazol-1-yl)octyl)urea] had a melting point of 90 to 95 °C. Moreover, the IC50 in the data set with SH-SY5Y, HeLa is less than 300 nM. With `O=C(NCCCCCCn1cc(-c2cccnc2)nn1)Nc1ccccc1-c1ccccc1` [1-([1,1′-biphenyl]-2-yl)-3-(6-(4-(pyridin-3-yl)-1H-1,2,3-triazol-1-yl)hexyl)urea], the IC50 in the data set on SH-SY5Y, HeLa is less than 300 nM. In addition, the “inhibition of the enzymatic activity of NAMPT” value against NAMPT is “able to inhibit”. For the compound `O=S(=O)(NCCc1ccc(Cn2cc(-c3cccnc3)nn2)cc1)c1ccccc1Br` [2-bromo-N-(4-((4-(pyridin-3-yl)-1H-1,2,3-triazol-1-yl)methyl)phenethyl)benzenesulfonamide], the IC50 in the data set with SH-SY5Y, HeLa is less than 300 nM. On the same count and under the same terms, the value for `O=S(=O)(NCCCCCCn1cc(-c2cccnc2)nn1)c1ccccc1Br` [2-bromo-N-(6-(4-(pyridin-3-yl)-1H-1,2,3-triazol-1-yl)hexyl)benzene sulfonamide] was less than 300 nM. For the compound `O=S(=O)(NCCCCCCCn1cc(-c2cccnc2)nn1)c1ccccc1Br` [2-bromo-N-(7-(4-(pyridin-3-yl)-1H-1,2,3-triazol-1-yl)heptyl)benzene sulfonamide], the IC50 in the data set with SH-SY5Y, HeLa is less than 300 nM.

Consider `O=S(=O)(NCCCCCCCCn1cc(-c2cccnc2)nn1)c1ccccc1Br` [2-bromo-N-(8-(4-(pyridin-3-yl)-1H-1,2,3-triazol-1-yl)octyl)benzene sulfonamide], for which the IC50 in the data set with SH-SY5Y, HeLa is less than 300 nM.

On to `O=C(NCCCCCCCn1cc(-c2cccnc2)nn1)c1ccccc1I` [2-iodo-N-(7-(4-(pyridin-3-yl)-1H-1,2,3-triazol-1-yl)heptyl)benzamide], for which the melting point fell in the range of 106 to 108 °C. Further, the IC50 with SH-SY5Y, HeLa is less than 300 nM.

Take `O=C(O)c1cccc(-c2ccccc2OCCCCCCn2cc(-c3cccnc3)nn2)c1` [2′-((6-(4-(pyridin-3-yl)-1H-1,2,3-triazol-1-yl)hexyl)oxy)-[1,1′-biphenyl]-3-carboxylic acid]: in the data set with SH-SY5Y, HeLa, the IC50 is less than 300 nM. Consider `O=C(O)c1ccc(-c2ccccc2OCCCCCCn2cc(-c3cccnc3)nn2)cc1` [2′-((6-(4-(pyridin-3-yl)-1H-1,2,3-triazol-1-yl)hexyl)oxy)-[1,1′-biphenyl]-4-carboxylic acid], for which the IC50 in the data set on SH-SY5Y, HeLa is less than 300 nM. Same read-out and setting: the value for `O=C(O)c1ccc(-c2ccccc2C(=O)NCCCCCCCn2cc(-c3cccnc3)nn2)cc1` [2′-((7-(4-(pyridin-3-yl)-1H-1,2,3-triazol-1-yl)heptyl)carbamoyl)-[1,1′-biphenyl]-4-carboxylic acid] was less than 300 nM. `c1ccc(-c2ccccc2-c2cn(CCc3ccc(Cn4cc(-c5cccnc5)nn4)cc3)nn2)cc1` [3-(1-(4-(2-(4-([1,1′-biphenyl]-2-yl)-1H-1,2,3-triazol-1-yl)ethyl)benzyl)-1H-1,2,3-triazol-4-yl)pyridine] yielded a melting point of 139 to 141 °C. Moreover, the IC50 in the data set with SH-SY5Y, HeLa was less than 300 nM.

Turning to `c1ccc(-c2ccccc2OCc2ccc(CCn3cc(-c4cccnc4)nn3)cc2)cc1` [3-(1-(4-(([1,1′-biphenyl]-2-yloxy)methyl)phenethyl)-1H-1,2,3-triazol-4-yl)pyridine], the melting point lay in the range of 136 to 137 °C. In addition, the IC50 in the data set with SH-SY5Y, HeLa is less than 300 nM.

In turn, `c1ccc(-c2ccccc2-c2cn(CCCCCCn3cc(-c4cccnc4)nn3)nn2)cc1` [3-(1-(6-(4-([1,1′-byphenyl]-2-yl)-1H-1,2,3-triazol-1-yl)hexyl)-1H-1,2,3-triazol-4-yl)pyridine] yielded a melting point of 139 to 140 °C. Moreover, the IC50 in the data set on SH-SY5Y, HeLa is less than 300 nM. Consider `c1ccc(-c2cn(CCCCCCn3cc(-c4cccnc4)nn3)nn2)cc1` [3-(1-(6-(4-phenyl-1H-1,2,3-triazol-1-yl)hexyl)-1H-1,2,3-triazol-4-yl)pyridine], for which the melting point is 172 to 173 °C. For `Cc1ccccc1-c1ccccc1OCCCCCCn1cc(-c2cccnc2)nn1` [3-(1-(6-((2′-methyl-[1,1′-biphenyl]-2-yl)oxy)hexyl)-1H-1,2,3-triazol-4-yl)pyridine], the IC50 in the data set with SH-SY5Y, HeLa was less than 300 nM. In turn, `c1ccc(OCCCCCCn2cc(-c3cccnc3)nn2)cc1` [3-(1-(6-phenoxyhexyl)-1H-1,2,3-triazol-4-yl)pyridine] displayed a melting point of 74 to 75 °C. The same measure, in the same setting: the value for `c1ccc(-c2cn(CCCCCCCn3cc(-c4cccnc4)nn3)nn2)cc1` [3-(1-(7-(4-phenyl-1H-1,2,3-triazol-1-yl)heptyl)-1H-1,2,3-triazol-4-yl)pyridine] was 143 to 144 °C; that for `c1ccc(OCCCCCCCn2cc(-c3cccnc3)nn2)cc1` [3-(1-(7-phenoxyheptyl)-1H-1,2,3-triazol-4-yl)pyridine] was 90.5 to 91 °C. On to `c1ccc(-c2ccccc2-c2cn(CCCCCCCCn3cc(-c4cccnc4)nn3)nn2)cc1` [3-(1-(8-(4-([1,1′-byphenyl]-2-yl)-1H-1,2,3-triazol-1-yl)octyl)-1H-1,2,3-triazol-4-yl)pyridine], for which the melting point was in the range of 136 to 140 °C. Also, the IC50 with SH-SY5Y, HeLa is less than 300 nM. `c1ccc(OCCCCCCCCn2cc(-c3cccnc3)nn2)cc1` [3-(1-(8-phenoxyoctyl)-1H-1,2,3-triazol-4-yl)pyridine] gave a melting point of 102 to 103 °C. With `O=C(Nc1ccccc1-c1ccccc1)OCCc1ccc(Cn2cc(-c3cccnc3)nn2)cc1` [4-((4-(pyridin-3-yl)-1H-1,2,3-triazol-1-yl)methyl)phenethyl[1,1′-biphenyl]-2-ylcarbamate], the melting point was in the range of 131 to 132 °C. In the data set with SH-SY5Y, HeLa, the IC50 is less than 300 nM. On the same counts, the results for `O=C(Nc1ccccc1-c1ccccc1)OCCCCCCCCn1cc(-c2cccnc2)nn1` [8-(4-(pyridin-3-yl)-1H-1,2,3-triazol-1-yl)octyl[1,1′-biphenyl]-2-ylcarbamate] are 81 to 85 °C and less than 300 nM. For `O=C(NCCCc1ccc(-n2cc(-c3cccnc3)nn2)cc1)c1ccccc1-c1ccccc1` [N-(3-(4-(4-(pyridin-3-yl)-1H-1,2,3-triazol-1-yl)phenyl)propyl)-[1,1′-biphenyl]-2-carboxamide] the same measures were 202 to 203 °C and less than 300 nM.

`O=C(NCc1ccc(CCn2cc(-c3cccnc3)nn2)cc1)c1ccccc1-c1ccccc1` [N-(4-(2-(4-(pyridin-3-yl)-1H-1,2,3-triazol-1-yl)ethyl)benzyl)-[1,1′-biphenyl]-2-carboxamide] returned a melting point of 204 to 205 °C. Moreover, the IC50 with SH-SY5Y, HeLa is less than 300 nM.

Consider `O=S(=O)(NCCc1ccc(Cn2cc(-c3cccnc3)nn2)cc1)c1ccccc1-c1ccccc1` [N-(4-((4-(pyridin-3-yl)-1H-1,2,3-triazol-1-yl)methyl)phenethyl)-[1,1′-biphenyl]-sulfonamide], for which the IC50 in the data set on SH-SY5Y, HeLa was less than 300 nM. The same measure, in the same setting: the result for `O=S(=O)(NCCCCCCn1cc(-c2cccnc2)nn1)c1ccccc1-c1ccccc1` [N-(6-(4-(pyridin-3-yl)-1H-1,2,3-triazol-1-yl)hexyl) biphenyl-2-sulfonamide] reads less than 300 nM; that for `O=S(=O)(NCCCCCCCn1cc(-c2cccnc2)nn1)c1ccccc1-c1ccccc1` [N-(7-(4-(pyridin-3-yl)-1H-1,2,3-triazol-1-yl)heptyl) biphenyl-2-sulfonamide], less than 300 nM. The compound `O=C(NCCCCCCCn1cc(-c2cccnc2)nn1)c1ccccc1` [N-(7-(4-(pyridin-3-yl)-1H-1,2,3-triazol-1-yl)heptyl)benzamide] returned a melting point of 123 to 124 °C.

The compound `c1ccc(-c2ccccc2CNCCCCCCn2cc(-c3cccnc3)nn2)cc1` [N-([1,1′-biphenyl]-2-ylmethyl)-6-(4-(pyridin-3-yl)-1H-1,2,3-triazol-1-yl)hexan-1-amine] came in with a melting point of 55 to 58 °C. The IC50 with SH-SY5Y, HeLa is less than 300 nM. Regarding `c1ccc(-c2ccccc2CNCCCCCCCn2cc(-c3cccnc3)nn2)cc1` [N-([1,1′-biphenyl]-2-ylmethyl)-7-(4-(pyridin-3-yl)-1H-1,2,3-triazol-1-yl)heptan-1-amine], the melting point is 86 to 91 °C. In the data set with SH-SY5Y, HeLa, the IC50 is less than 300 nM. As to `c1ccc(-c2ccccc2CNCCCCCCCCn2cc(-c3cccnc3)nn2)cc1` [N-([1,1′-biphenyl]-2-ylmethyl)-8-(4-(pyridin-3-yl)-1H-1,2,3-triazol-1-yl)octan-1-amine], in the data set with SH-SY5Y, HeLa, the IC50 is less than 300 nM. `c1ccc(-c2ccccc2CNCCc2ccc(Cn3cc(-c4cccnc4)nn3)cc2)cc1` [N-([1,1′-biphenyl]-ylmethyl)-2-(4-((4-(pyridin-3-yl)-1H-1,2,3-triazol-1-yl)methy)phenyl)ethanamine]: the IC50 in the data set on SH-SY5Y, HeLa was less than 300 nM.

`NC(=O)c1ccccc1-c1ccccc1C(=O)NCCCCCCCn1cc(-c2cccnc2)nn1` [N^2-(7-(4-(pyridin-3-yl)-1H-1,2,3-triazol-1-yl)heptyl)-[1,1′-biphenyl]-2,2′-dicarboxamide]: the melting point lay in the range of 100 to 101 °C.
